Source: US20060074073A1, “Therapeutic combinations comprising poly (ADP-ribose) polymerases inhibitor” (AGOURON PHARMACEUTICALS, INC., priority 2004, published 2006)
Marks after values point to notes of the source that are not given here.

Columns and labels:
[1] = tested on: SW620 human colon carcinoma xenograft; assay: In vivo antitumor efficacy with temozolomide, SW620 xenograft
PARP = assay: Tumor PARP catalytic activity, 32P-NAD incorporation in SW620 tumor homogenates of treated animals; format: in vivo, mice
Procedure: Tumours were excised and were snap frozen in liquid nitrogen and stored at −80° C. until homogenised for analysis. The specimen was defrosted on ice and the wet weight documented. The tissue was homogenised using a Pro 2000 instrument (Pro Scientific Inc, Monroe, Conn., USA) in 3 volumes (i.e. 1 mg plus 3 μl isotonic buffer −7 mM Hepes, 26 mM KCl, 0.1 mM dextran, 0.4 mM EGTA, 0.5 mM MgCl2, 45 mM sucrose, pH 7.8), giving a homogenate with an overall dilution of 1 in 4. The homogenate was kept on ice throughout the process, and homogenisation was performed in 10 second bursts to prevent undue warming of the sample. Prior to assay the samples were further diluted with isotonic buffer where necessary to give a final dilution of 1 in 40 for [^32P]NAD incorporation assay or 1 in 1000 for immunoblot aaasy.
Briefly, cells were suspended in hypotonic buffer (9 mM HEPES pH 7.8, 4.5% (v/v) dextran, 4.5 mM MgCl2 and 5 mM DTT) at 1.5×10^7/ml on ice for 30 minutes then 9 vol of isotonic buffer (40 mM HEPES pH 7.8, 130 mM KCl, 4% (v/v) dextran, 2 mM EGTA, 2.3 mM MgCl2, 225 mM sucrose and 2.5 mM DTT) was added. The reaction was started by adding 300 μl cells to 100 μl 300 μM NAD^+ containing [^32P]-NAD^+ (Amersham, UK), and terminated by the addition of 2 ml ice cold 10% (w/v) TCA+10% (w/v) sodium pyrophosphate. After 30 min on ice the precipitated ^32P—labelled ADP-ribose polymers were filtered on Whatman GC/C filters (Whatman Intemational Ltd, Kent, UK), washed 5 times with 1% (v/v) TCA/1% (v/v) sodium pyrophosphate, dried and counted. PARP inhibitory IC50 values were calculated from computer-fitted curves (GraphPad Software, Inc., San Diego, Calif.).
Tumour homogenates were assayed in a similar manner; however, the homogenisation process introduces sufficient DNA damage to maximally stimulate PARP activity and oligonucleotide was not therefore required. Results were expressed in terms of pmol PAR former per mg tumour.
Preparation of Tumour/Tissue Samples • 1. The frozen tumour samples are weighed. • 2. 3 volumes (i.e. 3 μl solution added for each 1 mg tissue) of isotonic buffer plus DTT is added to the tumour sample. This is stored on ice until and during homogenisation. • 3. The sample is homogenised on ice within a Class II cabinet for 10-second bursts until no detectable macroscopic pieces of tissue are visible. • 4. Sufficient volume of the homogenate is diluted 1 in 10 with isotonic buffer plus DTT to provide an overall dilution of 1 in 40 from the original sample. A final volume of 3 ml is sufficient for triplicate sampling and a subsequent protein assay. • 5. The diluted homogenate is stored on ice and assayed within one hour as below.
PARP Assay of Tumour/Tissue Samples • 1. ^32P 600 μM NAD solution is prepared fresh on the day of experiment as detailed above. Oligonucleotide stock is removed from storage and defrosted. • 2. Water bath is warmed to 26° C. and set to agitate at 70 oscillations per minute.
3. Reaction test tubes are set up as per table A for the QC samples and as per table B for the homogenate.
• 4. Each QC sample is assayed in triplicate, with T0, +oligo and −oligo samples ×3. (Total of 9 tubes per sample, if low cell counts −oligo samples are omitted.) Homogenates are also assayed in triplicate, with T0 and reaction samples ×3. (Total 6 tubes per sample). • 5. 2 ml ice cold 10% TCA+10% NaPPi is added to the T0 tubes prior to addition of homogenate or cells, to correct for non-specific binding of radio-label to the filter. • 6. Reaction test tubes homogenates and QC cells are warmed in the water bath to 26° C. for 7 minutes. • 7. Each preparation is vortexed briefly and the reaction is started by adding 300 μl of this to each reaction tube. • 8. The reaction is stopped exactly 6 minutes after addition of homogenate by adding 2 ml of ice cold 10% TCA+10% NaPPi and vortexing. • 9. The tube is then incubated on ice for at least one hour prior to filtration. • 10. […]

[2] = Plasma and tumor levels by HPLC/MS in mice bearing SW620 xenograft; format: in vivo
Procedure: In a parallel study plasma and tumor levels of the compound of formula 1 were measured by an HPLC/MS assay. In addition the degree of inhibition of tumor PARP catalytic activity was assessed using P^32-NAD incorporation into poly-ADP-ribose polymer in homogenates from SW620 tumors of treated animals. […] PARP catalytic activity was inhibited by 50% at 6 h and by 25% at 24 h.

LoVo xenografts = assay: In vivo antitumor efficacy with irinotecan, LoVo xenograft; design: species or system mice; details: once weekly × 3
Text: In no combination study was antagonism observed.

CNCc1ccc(-c2[nH]c3cc(F)cc4c3c2CCNC4=O)cc1.O=P(O)(O)O [Compound I, phosphate salt of 8-fluoro-2-{4-[(methylamino)methyl]phenyl}-1,3,4,5-tetrahydro-6H-azepino[5,4,3-cd]indol-6-one]
single-agent antitumor effects ([1]; Compound I alone): no single-agent antitumor effects

CNCc1ccc(-c2[nH]c3cc(F)cc4c3c2CCNC4=O)cc1.O=C[C@H](O)[C@@H](O)[C@H](O)[C@H](O)C(=O)O [compound of formula 1 glucuronate salt]
PARP Activity (%) (PARP; 0.1 mg/kg i.p. glucuronate salt + temozolomide 68 mg/kg, 0.5 h): 77.6 ± 13.3% | PARP Activity (%) (PARP; 0.1 mg/kg i.p. glucuronate salt + temozolomide 68 mg/kg, 6 h): 90.2 ± 11.5% | PARP Activity (%) (PARP; 0.1 mg/kg i.p. glucuronate salt + temozolomide 68 mg/kg, 24 h): 100.4 ± 7.5% | PARP Activity (%) (PARP; 1.0 mg/kg i.p. glucuronate salt + temozolomide 68 mg/kg, 0.5 h): 24.9 ± 16.2% | PARP Activity (%) (PARP; 1.0 mg/kg i.p. glucuronate salt + temozolomide 68 mg/kg, 6 h): 68.6 ± 36.2% | PARP Activity (%) (PARP; 1.0 mg/kg i.p. glucuronate salt + temozolomide 68 mg/kg, 24 h): 70.2 ± 19.0% | PARP Activity (%) (PARP; 10 mg/kg i.p. glucuronate salt + temozolomide 68 mg/kg, 0.5 h): 3.4 ± 1.4% | PARP Activity (%) (PARP; 10 mg/kg i.p. glucuronate salt + temozolomide 68 mg/kg, 6 h): 4.8 ± 0.87% | PARP Activity (%) (PARP; 10 mg/kg i.p. glucuronate salt + temozolomide 68 mg/kg, 24 h): 18.3 ± 12.7% | Plasma compound of formula 1 ([2]; 0.1 mg/kg i.p. as glucuronate salt + temozolomide 68 mg/kg p.o., 0.5 h): 12.7 ± 2.3 ng/mL | Plasma compound of formula 1 ([2]; 0.1 mg/kg i.p. as glucuronate salt + temozolomide 68 mg/kg p.o., 6 h): 0.0 ± 0.0 ng/mL | Plasma compound of formula 1 ([2]; 0.1 mg/kg i.p. as glucuronate salt + temozolomide 68 mg/kg p.o., 24 h): 0.0 ± 0.0 ng/mL | Plasma compound of formula 1 ([2]; 1.0 mg/kg i.p. as glucuronate salt + temozolomide 68 mg/kg p.o., 0.5 h): 92.0 ± 28.0 ng/mL | Plasma compound of formula 1 ([2]; 1.0 mg/kg i.p. as glucuronate salt + temozolomide 68 mg/kg p.o., 6 h): 4.7 ± 4.0 ng/mL | Plasma compound of formula 1 ([2]; 1.0 mg/kg i.p. as glucuronate salt + temozolomide 68 mg/kg p.o., 24 h): 0.0 ± 0.0 ng/mL | Plasma compound of formula 1 ([2]; 10 mg/kg i.p. as glucuronate salt + temozolomide 68 mg/kg p.o., 0.5 h): 1532 + 134 ng/mL | Plasma compound of formula 1 ([2]; 10 mg/kg i.p. as glucuronate salt + temozolomide 68 mg/kg p.o., 6 h): 98.0 ± 28.0 ng/mL | Plasma compound of formula 1 ([2]; 10 mg/kg i.p. as glucuronate salt + temozolomide 68 mg/kg p.o., 24 h): 17.8 ± 29.5 ng/mL | Enhancement (%) ([1]; SW620, 0.1 mg/kg i.p. glucuronate salt + temozolomide 68 mg/kg p.o., QD×5): 28^g % | Enhancement (%) ([1]; SW620, 1.0 mg/kg i.p. glucuronate salt + temozolomide 68 mg/kg p.o., QD×5): ≧100^g % | body weight loss ([1]; SW620, temozolomide 68 mg/kg + 0.05 or 0.15 mg/kg glucuronate salt QD×5): No body weight loss | complete remission rate ([1]; SW620, temozolomide 68 mg/kg + 0.15 or 0.5 mg/kg glucuronate salt QD×5): 100% | Enhancement (%) ([1]; SW620, temozolomide 68 mg/kg oral + 0.05 mg/kg i.p. (glucuronate salt), once daily for 5 days): 35% | Enhancement (%) ([1]; SW620, temozolomide 68 mg/kg oral + 0.15 mg/kg i.p. (glucuronate salt), once daily for 5 days): 270^f % | Enhancement (%) ([1]; SW620, temozolomide 68 mg/kg oral + 0.5 mg/kg i.p. (glucuronate salt), once daily for 5 days): >60^f, g % | Enhancement (%) (LoVo xenografts; irinotecan 25 mg/kg i.p. + 0.0 mg/kg i.p. (glucuronate salt)): 0% | Enhancement (%) (LoVo xenografts; irinotecan 25 mg/kg i.p. + 0.15 mg/kg i.p. (glucuronate salt)): 71% | Enhancement (%) (LoVo xenografts; irinotecan 25 mg/kg i.p. + 0.5 mg/kg i.p. (glucuronate salt)): 86^f %
